Assay results taken from BindingDB's records for doi:10.1021/jm500588w (Sanofi R & D, 2014).

assay: Antagonist activity at P2Y12 receptor in human platelet rich plasma assessed as inhibition of ADP-induced aggregation

SMILES	IC50
CCOC(=O)c1c(C)nn(-c2ccc(NC(=O)Nc3ccccc3OCCCC(=O)O)cc2)c1C	13 µM
CCCC(=O)c1cnn(-c2ccc(NC(=O)c3cn(CC(=O)OC)c4ccc(C)cc34)cc2)c1C	4.1 µM
CCCC(=O)c1cnn(-c2ccc(NC(=O)c3cn(CC(=O)N4CCN(C)CC4)c4cc(C)c(C)cc34)cc2)c1C	0.5 µM
CCCC(=O)c1cnn(-c2ccc(N(C)C(=O)c3cn(CC(=O)O)c4ccc(C)cc34)cc2)c1C	> 30 µM
CCCC(=O)c1cnn(-c2ccc(NC(=O)c3cn(CC(=O)N4CCN(C)CC4)c4ccc(Cl)cc34)cc2)c1C	0.5 µM
CCCC(=O)c1cnn(-c2ccc(NC(=O)c3cn(CC(=O)N4CCN(C)CC4)c4cc(C)c(Cl)cc34)cc2)c1C	0.5 µM
CCCC(=O)c1cnn(-c2ccc(NC(=O)c3cn(CC(=O)N(C)C)c4cc(C)c(C)cc34)cc2)c1C	0.8 µM
CCCC(=O)c1cnn(-c2ccc(NC(=O)c3cn(CC(=O)O)c4cc(C)c(C)cc34)cc2)c1C	0.4 µM
CCOC(=O)c1c(C)nn(-c2ccc(C(=O)NCc3ccccc3OC)cc2)c1C	16.8 µM
CCCC(=O)c1cnn(-c2ccc(NC(=O)c3cn(CC(=O)O)c4ccc(C)c(C)c34)cc2)c1C	> 30 µM
CCCC(=O)c1cnn(-c2ccc(NC(=O)c3c(C)n(CC(=O)O)c4ccc(C)cc34)cc2)c1C	15 µM
CCCC(=O)c1cnn(-c2ccc(NC(=O)c3cn(CC(=O)N4CCN5CCN(C)C(=O)C5C4)c4ccc(Cl)cc34)cc2)c1C (configuration not stated)	0.3 µM
CCCC(=O)c1cnn(-c2ccc(NC(=O)c3cn(CC(=O)N4CCN(Cc5cc(C)on5)CC4)c4ccc(Cl)cc34)cc2)c1C	0.3 µM
CCCC(=O)c1cnn(-c2ccc(NC(=O)c3cn(CC(=O)N4CCN(C)CC4)c4cc(F)c(Cl)cc34)cc2)c1C	0.5 µM
CCCC(=O)c1cnn(-c2ccc(NC(=O)n3cc(CCCC(=O)O)c4ccc(C)cc43)cc2)c1C	> 30 µM
CCCC(=O)c1cnn(-c2ccc(NC(=O)c3cn(CC(=O)N4CCN(CCOC)CC4)c4ccc(Cl)cc34)cc2)c1C	0.3 µM
CCCC(=O)c1cnn(-c2ccc(NC(=O)Nc3cc(C)ccc3OCCCC(=O)O)cc2)c1C	> 30 µM
CCCC(=O)c1cnn(-c2ccc(NC(=O)c3cn(CC(=O)O)c4ccc(C)cc34)cc2)c1C	1.8 µM
CCCC(=O)c1cnn(-c2ccc(NC(=O)c3cn(CC(=O)N4CCN(C)CC4)c4ccc(C(F)(F)F)cc34)cc2)c1C	0.7 µM
CCCC(=O)c1cnn(-c2ccc(NC(=O)c3cn(CCCC(=O)O)c4ccc(C)cc34)cc2)c1C	20 µM
CCCC(=O)c1cnn(-c2ccc(NC(=O)c3cn(CC(=O)N4CCN(C)CC4)c4ccc(OC)cc34)cc2)c1C	0.4 µM
CCCC(=O)c1cnn(-c2ccc(NC(=O)c3cn(CC(=O)N4CCN(C)CC4)c4ccc(C)cc34)cc2)c1C	0.5 µM
CCCC(=O)c1cnn(-c2ccc(NC(=O)c3cn(CC(=O)N4CCN(C)CC4)c4cc(C)c(Br)cc34)cc2)c1C	1.1 µM
CCCC(=O)c1cnn(-c2ccc(NC(=O)c3cn(CC(=O)N4CCN(CCO)CC4)c4ccc(Cl)cc34)cc2)c1C	0.3 µM
CCOC(=O)c1c(C)nn(-c2ccc(NC(=O)Nc3ccc(Cl)cc3)cc2)c1C	4.5 µM
CCCC(=O)c1cnn(-c2ccc(NC(=O)c3cn(CC(=O)N4CCN(CC(=O)N(C)C)CC4)c4ccc(Cl)cc34)cc2)c1C	0.4 µM
CCCC(=O)c1cnn(-c2ccc(NC(=O)c3cn(CCC(=O)O)c4ccc(C)cc34)cc2)c1C	4 µM
